# Patent US20260297081A1, “COMPOUNDS AND METHODS OF TREATING CANCERS” (Cullgen Inc., priority 2023, published 2026)
# Target: CDK4 (Homo sapiens, UniProt P11802+Q16531)
# Assay: CDK4 percentage degradation in Calu-1 cells (Table 6)
# Type: cell-based
# Set-up: Cells that express cyclin D1-3 and CDK4/6 proteins were treated with heterobifunctional compounds; endogenous in cells; host or cells: Calu-1
# Conditions: 16 hours; for inhibition at 0.04 µM: 40 nM; for inhibition at 0.2 µM: 200 nM
# Summary of the method: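 Percentage degradation of Cyclin D1 and CDK4 derived from densitometry of ECL Western blots on lysates of Calu-1 cells. Treatment was 16 h with compound at either 40 nM or 200 nM.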
# Chain of CDK4 (P11802 2-303 limits assumed): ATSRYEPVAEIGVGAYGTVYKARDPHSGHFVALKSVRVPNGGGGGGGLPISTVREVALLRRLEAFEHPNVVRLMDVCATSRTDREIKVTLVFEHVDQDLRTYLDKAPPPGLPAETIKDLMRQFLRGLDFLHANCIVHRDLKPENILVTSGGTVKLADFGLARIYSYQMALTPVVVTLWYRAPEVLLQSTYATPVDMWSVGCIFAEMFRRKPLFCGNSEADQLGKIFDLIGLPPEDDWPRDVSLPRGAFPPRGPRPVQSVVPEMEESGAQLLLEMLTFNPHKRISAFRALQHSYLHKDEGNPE
# Chain of CDK4 (P24385 whole entry partner): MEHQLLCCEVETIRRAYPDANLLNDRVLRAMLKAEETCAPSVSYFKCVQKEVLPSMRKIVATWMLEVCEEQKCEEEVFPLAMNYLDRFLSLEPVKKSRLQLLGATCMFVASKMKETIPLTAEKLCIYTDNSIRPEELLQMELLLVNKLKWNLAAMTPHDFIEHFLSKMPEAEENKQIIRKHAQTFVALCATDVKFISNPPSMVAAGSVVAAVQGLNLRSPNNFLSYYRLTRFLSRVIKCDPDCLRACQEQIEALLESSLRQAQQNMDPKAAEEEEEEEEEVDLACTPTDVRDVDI
# Chain of CDK4 (Q16531 2-1140 limits assumed): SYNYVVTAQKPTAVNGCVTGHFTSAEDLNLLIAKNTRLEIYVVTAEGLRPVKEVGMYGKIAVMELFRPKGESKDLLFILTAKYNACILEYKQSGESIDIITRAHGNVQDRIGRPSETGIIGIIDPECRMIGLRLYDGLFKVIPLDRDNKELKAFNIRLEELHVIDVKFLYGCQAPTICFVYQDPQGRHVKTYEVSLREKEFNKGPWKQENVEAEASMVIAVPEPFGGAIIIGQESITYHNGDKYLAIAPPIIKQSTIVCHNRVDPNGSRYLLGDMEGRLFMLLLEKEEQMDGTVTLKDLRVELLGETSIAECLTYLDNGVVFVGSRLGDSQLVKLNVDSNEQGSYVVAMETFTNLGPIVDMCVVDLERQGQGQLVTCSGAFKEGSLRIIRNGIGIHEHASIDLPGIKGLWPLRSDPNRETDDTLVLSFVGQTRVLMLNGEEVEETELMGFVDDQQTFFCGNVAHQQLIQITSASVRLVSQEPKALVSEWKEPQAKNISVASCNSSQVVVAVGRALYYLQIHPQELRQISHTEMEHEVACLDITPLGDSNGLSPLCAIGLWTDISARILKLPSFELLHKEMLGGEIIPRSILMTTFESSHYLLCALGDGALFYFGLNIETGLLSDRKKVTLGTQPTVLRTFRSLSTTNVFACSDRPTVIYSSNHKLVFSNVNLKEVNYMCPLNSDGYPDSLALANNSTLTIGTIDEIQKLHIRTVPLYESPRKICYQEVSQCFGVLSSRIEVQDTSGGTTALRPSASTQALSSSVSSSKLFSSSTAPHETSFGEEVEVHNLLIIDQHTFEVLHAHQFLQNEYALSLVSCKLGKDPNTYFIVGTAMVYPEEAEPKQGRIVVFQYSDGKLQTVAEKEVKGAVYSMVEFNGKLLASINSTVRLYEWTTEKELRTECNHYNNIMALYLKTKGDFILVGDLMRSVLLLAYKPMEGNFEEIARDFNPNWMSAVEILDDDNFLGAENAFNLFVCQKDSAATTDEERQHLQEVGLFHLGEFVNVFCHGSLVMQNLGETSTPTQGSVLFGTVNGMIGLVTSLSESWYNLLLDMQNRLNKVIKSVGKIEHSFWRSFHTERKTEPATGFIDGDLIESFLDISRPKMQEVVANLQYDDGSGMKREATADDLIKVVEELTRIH
inhibition at 0.04 µM [%],inhibition at 0.2 µM [%],Structure (SMILES)
30 to 50,50 to 80,"[2H]C([2H])([2H])Nc1ccc(C(=O)Nc2cc(C)on2)c(NC2CC3(CC(NC(=O)CN4CCN(c5ccc(Nc6ncc7c(C)c(C(C)=O)c(=O)n(C8CCCC8)c7n6)nc5)CC4)C3)C2)n1 (centres unmarked) [CPD-225, 2-((6-(2-(4-(6-((6-acetyl-8-cyclopentyl-5-methyl-7-oxo-7,8-dihydropyrido[2,3-d]pyrimidin-2-yl)amino)pyridin-3-yl)piperazin-1-yl)acetamido)spiro[3.3]heptan-2-yl)amino)-6-((methyl-d3)amino)-N-(5-methylisoxazol-3-yl)nicotinamide]"
< 30,30 to 50,"[2H]C([2H])([2H])Nc1ccc(C(=O)Nc2cccc(C)n2)c(NC2CC3(C2)CC(OC(C)(C)C(=O)N2CCN(c4ccc(Nc5ncc6c(C)c(C(C)=O)c(=O)n(C7CCCC7)c6n5)nc4)CC2)C3)n1 (centres unmarked) [CPD-226, 2-((6-((1-(4-(6-((6-acetyl-8-cyclopentyl-5-methyl-7-oxo-7,8-dihydropyrido[2,3-d]pyrimidin-2-yl)amino)pyridin-3-yl)piperazin-1-yl)-2-methyl-1-oxopropan-2-yl)oxy)spiro[3.3]heptan-2-yl)amino)-6-((methyl-d3)amino)-N-(6-methylpyridin-2-yl)nicotinamide]"
< 30,< 30,"CNc1ccc(C(=O)Nc2cc(C(C)C)on2)c(NC2CC3(CC(NC(=O)CN4CCN(c5ccc(Nc6ncc7c(C)c(C(C)=O)c(=O)n(C8CCCC8)c7n6)nc5)CC4)C3)C2)n1 (centres unmarked) [CPD-227, 2-((6-(2-(4-(6-((6-acetyl-8-cyclopentyl-5-methyl-7-oxo-7,8-dihydropyrido[2,3-d]pyrimidin-2-yl)amino)pyridin-3-yl)piperazin-1-yl)acetamido)spiro[3.3]heptan-2-yl)amino)-N-(5-isopropylisoxazol-3-yl)-6-(methylamino)nicotinamide]"
< 30,30 to 50,"CNc1ccc(C(=O)Nc2cc(C)n(C)n2)c(NC2CCN(C(=O)CN3CCN(c4ccc(Nc5ncc6c(C)c(C(C)=O)c(=O)n(C7CCCC7)c6n5)nc4)CC3)CC2)n1 [CPD-228, 2-((1-(2-(4-(6-((6-acetyl-8-cyclopentyl-5-methyl-7-oxo-7,8-dihydropyrido[2,3-d]pyrimidin-2-yl)amino)pyridin-3-yl)piperazin-1-yl)acetyl)piperidin-4-yl)amino)-N-(1,5-dimethyl-1H-pyrazol-3-yl)-6-(methylamino)nicotinamide]"
30 to 50,50 to 80,"CNc1ccc(C(=O)Nc2cc(C)on2)c(NC2CCN(C(=O)CN3CCN(c4ccc(Nc5ncc6c(C)c(C(C)=O)c(=O)n(C7CCCC7)c6n5)nc4)CC3)CC2)n1 [CPD-229, 2-((1-(2-(4-(6-((6-acetyl-8-cyclopentyl-5-methyl-7-oxo-7,8-dihydropyrido[2,3-d]pyrimidin-2-yl)amino)pyridin-3-yl)piperazin-1-yl)acetyl)piperidin-4-yl)amino)-6-(methylamino)-N-(5-methylisoxazol-3-yl)nicotinamide]"
< 30,30 to 50,"[2H]C([2H])([2H])Nc1ccc(C(=O)Nc2cc(C)n(C)n2)c(NC2CCN(C(=O)CN3CCN(c4ccc(Nc5ncc6c(C)c(C(C)=O)c(=O)n(C7CCCC7)c6n5)nc4)CC3)CC2)n1 [CPD-230, 2-((1-(2-(4-(6-((6-acetyl-8-cyclopentyl-5-methyl-7-oxo-7,8-dihydropyrido[2,3-d]pyrimidin-2-yl)amino)pyridin-3-yl)piperazin-1-yl)acetyl)piperidin-4-yl)amino)-N-(1,5-dimethyl-1H-pyrazol-3-yl)-6-((methyl-d3)amino)nicotinamide]"
30 to 50,50 to 80,"[2H]C([2H])([2H])Nc1ccc(C(=O)Nc2cc(C)on2)c(NC2CCN(C(=O)CN3CCN(c4ccc(Nc5ncc6c(C)c(C(C)=O)c(=O)n(C7CCCC7)c6n5)nc4)CC3)CC2)n1 [CPD-231, 2-((1-(2-(4-(6-((6-acetyl-8-cyclopentyl-5-methyl-7-oxo-7,8-dihydropyrido[2,3-d]pyrimidin-2-yl)amino)pyridin-3-yl)piperazin-1-yl)acetyl)piperidin-4-yl)amino)-6-((methyl-d3)amino)-N-(5-methylisoxazol-3-yl)nicotinamide]"
< 30,30 to 50,"[2H]C([2H])([2H])Nc1ccc(C(=O)Nc2cc(C)n(C)n2)c(NC2CN(C(=O)C(F)(F)CN3CCN(c4ccc(Nc5ncc6c(C)c(C(C)=O)c(=O)n(C7CCCC7)c6n5)nc4)CC3)C2)n1 [CPD-233, 2-((1-(3-(4-(6-((6-acetyl-8-cyclopentyl-5-methyl-7-oxo-7,8-dihydropyrido[2,3-d]pyrimidin-2-yl)amino)pyridin-3-yl)piperazin-1-yl)-2,2-difluoropropanoyl)azetidin-3-yl)amino)-N-(1,5-dimethyl-1H-pyrazol-3-yl)-6-((methyl-d3)amino)nicotinamide]"
< 30,< 30,"[2H]C([2H])([2H])Nc1ccc(C(=O)Nc2cc(C)on2)c(NC2CN(C(=O)C(F)(F)CN3CCN(c4ccc(Nc5ncc6c(C)c(C(C)=O)c(=O)n(C7CCCC7)c6n5)nc4)CC3)C2)n1 [CPD-234, 2-((1-(3-(4-(6-((6-acetyl-8-cyclopentyl-5-methyl-7-oxo-7,8-dihydropyrido[2,3-d]pyrimidin-2-yl)amino)pyridin-3-yl)piperazin-1-yl)-2,2-difluoropropanoyl)azetidin-3-yl)amino)-6-((methyl-d3)amino)-N-(5-methylisoxazol-3methyl-yl)nicotinamide]"
< 30,50 to 80,"CNc1ccc(C(=O)Nc2ccc(N(C)C)nn2)c(NC2CCC3(C2)CN(C(=O)CN2CCN(c4ccc(Nc5ncc6c(C)c(C(C)=O)c(=O)n(C7CCCC7)c6n5)nc4)CC2)C3)n1 (centres unmarked) [CPD-235, 2-((2-(2-(4-(6-((6-acetyl-8-cyclopentyl-5-methyl-7-oxo-7,8-dihydropyrido[2,3-d]pyrimidin-2-yl)amino)pyridin-3-yl)piperazin-1-yl)acetyl)-2-azaspiro[3.4]octan-6-yl)amino)-N-(6-(dimethylamino)pyridazin-3-yl)-6-(methylamino)nicotinamide]"
30 to 50,50 to 80,"[2H]C([2H])([2H])Nc1ccc(C(=O)Nc2cn(C)c(C3CC3)n2)c(NC2CCN(C(=O)CN3CCN(c4ccc(Nc5ncc6c(C)c(C(C)=O)c(=O)n(C7CCCC7)c6n5)nc4)CC3)CC2)n1 [CPD-236, 2-((1-(2-(4-(6-((6-acetyl-8-cyclopentyl-5-methyl-7-oxo-7,8-dihydropyrido[2,3-d]pyrimidin-2-yl)amino)pyridin-3-yl)piperazin-1-yl)acetyl)piperidin-4-yl)amino)-N-(2-cyclopropyl-1-methyl-1H-imidazol-4-yl)-6-((methyl-d3)amino)nicotinamide]"
< 30,< 30,"CNc1ccc(C(=O)Nc2cn(C(C)C)c(C)n2)c(NC2CC3(CC(NC(=O)CN4CCN(c5ccc(Nc6ncc7c(C)c(C(C)=O)c(=O)n(C8CCCC8)c7n6)nc5)CC4)C3)C2)n1 (centres unmarked) [CPD-238, 2-((6-(2-(4-(6-((6-acetyl-8-cyclopentyl-5-methyl-7-oxo-7,8-dihydropyrido[2,3-d]pyrimidin-2-yl)amino)pyridin-3-yl)piperazin-1-yl)acetamido)spiro[3.3]heptan-2-yl)amino)-N-(1-isopropyl-2-methyl-1H-imidazol-4-yl)-6-(methylamino)nicotinamide]"
30 to 50,50 to 80,"[2H]C([2H])([2H])Nc1ccc(C(=O)Nc2ccc(F)c(C3CC3)n2)c(NC2CC3(CC(NC(=O)CN4CCN(c5ccc(Nc6ncc7c(C)c(C(C)=O)c(=O)n(C8CCCC8)c7n6)nc5)CC4)C3)C2)n1 (centres unmarked) [CPD-239, 2-((6-(2-(4-(6-((6-acetyl-8-cyclopentyl-5-methyl-7-oxo-7,8-dihydropyrido[2,3-d]pyrimidin-2-yl)amino)pyridin-3-yl)piperazin-1-yl)acetamido)spiro[3.3]heptan-2-yl)amino)-N-(6-cyclopropyl-5-fluoropyridin-2-yl)-6-((methyl-da)amino)nicotinamide]"
30 to 50,30 to 50,"CNc1ccc(C(=O)Nc2cccc(C3CC3)n2)c(NC2CC(NC(=O)CN3CCN(c4ccc(Nc5ncc6c(C)c(C(C)=O)c(=O)n(C7CCCC7)c6n5)nc4)CC3)C2)n1 (centres unmarked) [CPD-240, 2-((3-(2-(4-(6-((6-acetyl-8-cyclopentyl-5-methyl-7-oxo-7,8-dihydropyrido[2,3-d]pyrimidin-2-yl)amino)pyridin-3-yl)piperazin-1-yl)acetamido)cyclobutyl)amino)-N-(6-cyclopropylpyridin-2-yl)-6-(methylamino)nicotinamide]"
50 to 80,50 to 80,"CNc1ccc(C(=O)Nc2ccc(N(C)C)nn2)c(NC2CC(NC(=O)C(C)(C)N3CCN(c4ccc(Nc5ncc6c(C)c(C(C)=O)c(=O)n(C7CCCC7)c6n5)nc4)CC3)C2)n1 (centres unmarked) [CPD-243, 2-((3-(2-(4-(6-((6-acetyl-8-cyclopentyl-5-methyl-7-oxo-7,8-dihydropyrido[2,3-d]pyrimidin-2-yl)amino)pyridin-3-yl)piperazin-1-yl)-2-methylpropanamido)cyclobutyl)amino)-N-(6-(dimethylamino)pyridazin-3-yl)-6-(methylamino)nicotinamide]"
30 to 50,50 to 80,"[2H]C([2H])([2H])Nc1ccc(C(=O)Nc2ccc(N(C)C)nn2)c(NC2CC(NC(=O)CN3CCN(c4ccc(Nc5ncc6c(C)c(C(C)=O)c(=O)n(C7CCCC7)c6n5)nc4)CC3)C2)n1 (centres unmarked) [CPD-245, 2-((3-(2-(4-(6-((6-acetyl-8-cyclopentyl-5-methyl-7-oxo-7,8-dihydropyrido[2,3-d]pyrimidin-2-yl)amino)pyridin-3-yl)piperazin-1-yl)acetamido)cyclobutyl)amino)-N-(6-(dimethylamino)pyridazin-3-yl)-6-((methyl-d3)amino)nicotinamide]"
